Reference: patent EP2047849A1 (KTB Tumorforschungsgesellschaft mbH, priority 2007, dated 2009)
Positions count from the first letter of the chain named.

Tests used:
Experiment in all cases: 33PanQinase Activity Assay (in vitro protein kinase activity assay)
Type in all cases: biochemical
Settings in all cases: recombinant purified kinase, 1 µM [γ-33P]-ATP
PDGFR-alpha = molecular target: T1, PDGFR-alpha (Homo sapiens, UniProt P16234)
T1 construct: made in house; host or cells: Sf9 insect cells (baculovirus)
T1 sequence (P16234 24-1089): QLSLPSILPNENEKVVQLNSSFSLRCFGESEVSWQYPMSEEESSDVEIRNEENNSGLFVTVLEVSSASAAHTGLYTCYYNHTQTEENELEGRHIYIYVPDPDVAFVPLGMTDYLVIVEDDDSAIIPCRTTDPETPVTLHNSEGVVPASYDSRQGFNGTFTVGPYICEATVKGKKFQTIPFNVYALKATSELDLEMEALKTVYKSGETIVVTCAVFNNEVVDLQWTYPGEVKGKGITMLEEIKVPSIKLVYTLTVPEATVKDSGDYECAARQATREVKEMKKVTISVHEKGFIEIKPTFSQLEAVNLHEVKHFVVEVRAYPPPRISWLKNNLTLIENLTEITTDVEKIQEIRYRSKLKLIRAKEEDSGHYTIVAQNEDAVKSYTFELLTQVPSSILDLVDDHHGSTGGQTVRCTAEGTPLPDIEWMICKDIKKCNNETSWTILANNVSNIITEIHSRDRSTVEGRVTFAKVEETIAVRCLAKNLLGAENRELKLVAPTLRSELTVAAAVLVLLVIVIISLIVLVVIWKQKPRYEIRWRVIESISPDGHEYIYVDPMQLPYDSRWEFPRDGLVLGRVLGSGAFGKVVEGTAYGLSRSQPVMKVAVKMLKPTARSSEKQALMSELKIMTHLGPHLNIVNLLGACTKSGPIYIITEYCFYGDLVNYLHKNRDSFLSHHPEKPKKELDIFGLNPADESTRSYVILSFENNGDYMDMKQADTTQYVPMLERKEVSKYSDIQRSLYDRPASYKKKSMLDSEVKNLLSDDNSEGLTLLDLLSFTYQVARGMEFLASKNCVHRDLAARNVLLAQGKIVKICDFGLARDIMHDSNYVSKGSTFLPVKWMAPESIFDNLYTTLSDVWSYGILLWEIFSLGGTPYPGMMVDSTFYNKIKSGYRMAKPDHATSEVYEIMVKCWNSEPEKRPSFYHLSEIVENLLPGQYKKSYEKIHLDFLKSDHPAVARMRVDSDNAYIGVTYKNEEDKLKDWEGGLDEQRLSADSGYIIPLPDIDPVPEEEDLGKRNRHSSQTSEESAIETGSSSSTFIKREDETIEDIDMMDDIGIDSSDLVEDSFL
Method: (§1) Inhibition of protein kinases by compounds was measured in proprietary protein kinase activity assay (^33PanQinase® Activity Assay) using recombinant purified protein kinases. All protein kinases were expressed in Sf9 insect cells as recombinant GST-fusion proteins or His-tagged proteins by means of the baculovirus expression system. All kinases were produced from human cDNAs. Kinases were purified by affinity chromatography using either GSH-agarose (Sigma) or Ni-NTH-agarose (Qiagen). The purity of the protein kinases was examined by SDS-PAGE/Coomassie staining. Activity was measured by determination of the incorporation of radio labelled phosphate into a substrate. The reaction cocktails for all enzymes contained 60 mM HEPES-NaOH, 10 mM Tris/HCl, pH 7.5, 20 mM NaCl, 3 mM MgCl2, 3 mM MnCl2, 3 µM Na-orthovanadate, 2 mM DTT, 4% glycerol, 1 µM [γ-^33P]-ATP (approx. 6 x 10^5 cpm per well), protein kinase , and substrate. Table 1: Protein kinases inhibited with high potency in vitro by compound PQ-012, PQ-013, PQ-014, PQ-016, PQ-041, PQ-042.

CHK2 = molecular target: T2, CHK2 (Homo sapiens, UniProt O96017)
T2 construct: made in house; host or cells: Sf9 insect cells (baculovirus)
T2 sequence (O96017 whole entry): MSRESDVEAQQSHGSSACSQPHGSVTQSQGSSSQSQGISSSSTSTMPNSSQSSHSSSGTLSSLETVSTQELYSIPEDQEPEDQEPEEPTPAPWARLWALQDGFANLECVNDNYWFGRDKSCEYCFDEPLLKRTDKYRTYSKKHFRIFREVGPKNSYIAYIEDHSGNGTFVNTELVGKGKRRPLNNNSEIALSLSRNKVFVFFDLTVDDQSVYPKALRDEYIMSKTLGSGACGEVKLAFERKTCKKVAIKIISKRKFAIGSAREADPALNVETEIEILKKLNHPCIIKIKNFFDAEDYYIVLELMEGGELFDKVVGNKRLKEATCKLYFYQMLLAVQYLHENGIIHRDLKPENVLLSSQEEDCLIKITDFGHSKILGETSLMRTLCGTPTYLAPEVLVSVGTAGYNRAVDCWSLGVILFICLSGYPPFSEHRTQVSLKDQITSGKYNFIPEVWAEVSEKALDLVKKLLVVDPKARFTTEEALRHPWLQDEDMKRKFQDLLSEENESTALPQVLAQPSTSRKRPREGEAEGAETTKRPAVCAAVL
Method: as §1

PDGFR-beta = molecular target: T3, PDGFR-beta (Homo sapiens, UniProt P09619)
T3 construct: made in house; host or cells: Sf9 insect cells (baculovirus)
T3 sequence (P09619 33-1106): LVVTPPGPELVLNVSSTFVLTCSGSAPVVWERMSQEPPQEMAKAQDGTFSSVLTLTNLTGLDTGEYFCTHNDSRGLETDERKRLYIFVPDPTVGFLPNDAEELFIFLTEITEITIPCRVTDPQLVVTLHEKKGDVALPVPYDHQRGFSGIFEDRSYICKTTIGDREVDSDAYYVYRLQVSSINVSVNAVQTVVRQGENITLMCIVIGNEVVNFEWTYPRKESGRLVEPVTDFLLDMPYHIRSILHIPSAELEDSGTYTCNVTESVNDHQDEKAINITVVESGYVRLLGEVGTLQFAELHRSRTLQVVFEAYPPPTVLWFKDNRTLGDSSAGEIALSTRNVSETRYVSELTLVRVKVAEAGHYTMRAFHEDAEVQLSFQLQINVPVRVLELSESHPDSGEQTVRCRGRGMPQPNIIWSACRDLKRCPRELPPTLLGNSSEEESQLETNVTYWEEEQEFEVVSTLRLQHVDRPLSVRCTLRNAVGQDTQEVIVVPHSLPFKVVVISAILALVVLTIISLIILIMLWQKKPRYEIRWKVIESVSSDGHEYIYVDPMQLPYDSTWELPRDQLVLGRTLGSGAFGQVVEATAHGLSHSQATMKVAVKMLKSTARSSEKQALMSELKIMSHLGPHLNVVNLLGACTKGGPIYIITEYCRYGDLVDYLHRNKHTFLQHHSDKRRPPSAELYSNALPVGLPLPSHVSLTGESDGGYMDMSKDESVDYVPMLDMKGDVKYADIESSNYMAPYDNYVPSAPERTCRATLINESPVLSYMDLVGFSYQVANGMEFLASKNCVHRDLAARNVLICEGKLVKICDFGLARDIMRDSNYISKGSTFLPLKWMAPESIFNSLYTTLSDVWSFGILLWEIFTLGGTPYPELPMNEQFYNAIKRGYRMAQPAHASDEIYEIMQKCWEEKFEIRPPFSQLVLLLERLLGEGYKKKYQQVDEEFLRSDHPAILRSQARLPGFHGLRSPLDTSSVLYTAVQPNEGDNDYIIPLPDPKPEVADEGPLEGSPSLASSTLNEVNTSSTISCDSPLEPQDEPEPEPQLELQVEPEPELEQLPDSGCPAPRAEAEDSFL
Method: as §1

FAK = molecular target: T4, FAK (Homo sapiens, UniProt Q05397)
T4 construct: made in house; host or cells: Sf9 insect cells (baculovirus)
T4 sequence (Q05397 whole entry): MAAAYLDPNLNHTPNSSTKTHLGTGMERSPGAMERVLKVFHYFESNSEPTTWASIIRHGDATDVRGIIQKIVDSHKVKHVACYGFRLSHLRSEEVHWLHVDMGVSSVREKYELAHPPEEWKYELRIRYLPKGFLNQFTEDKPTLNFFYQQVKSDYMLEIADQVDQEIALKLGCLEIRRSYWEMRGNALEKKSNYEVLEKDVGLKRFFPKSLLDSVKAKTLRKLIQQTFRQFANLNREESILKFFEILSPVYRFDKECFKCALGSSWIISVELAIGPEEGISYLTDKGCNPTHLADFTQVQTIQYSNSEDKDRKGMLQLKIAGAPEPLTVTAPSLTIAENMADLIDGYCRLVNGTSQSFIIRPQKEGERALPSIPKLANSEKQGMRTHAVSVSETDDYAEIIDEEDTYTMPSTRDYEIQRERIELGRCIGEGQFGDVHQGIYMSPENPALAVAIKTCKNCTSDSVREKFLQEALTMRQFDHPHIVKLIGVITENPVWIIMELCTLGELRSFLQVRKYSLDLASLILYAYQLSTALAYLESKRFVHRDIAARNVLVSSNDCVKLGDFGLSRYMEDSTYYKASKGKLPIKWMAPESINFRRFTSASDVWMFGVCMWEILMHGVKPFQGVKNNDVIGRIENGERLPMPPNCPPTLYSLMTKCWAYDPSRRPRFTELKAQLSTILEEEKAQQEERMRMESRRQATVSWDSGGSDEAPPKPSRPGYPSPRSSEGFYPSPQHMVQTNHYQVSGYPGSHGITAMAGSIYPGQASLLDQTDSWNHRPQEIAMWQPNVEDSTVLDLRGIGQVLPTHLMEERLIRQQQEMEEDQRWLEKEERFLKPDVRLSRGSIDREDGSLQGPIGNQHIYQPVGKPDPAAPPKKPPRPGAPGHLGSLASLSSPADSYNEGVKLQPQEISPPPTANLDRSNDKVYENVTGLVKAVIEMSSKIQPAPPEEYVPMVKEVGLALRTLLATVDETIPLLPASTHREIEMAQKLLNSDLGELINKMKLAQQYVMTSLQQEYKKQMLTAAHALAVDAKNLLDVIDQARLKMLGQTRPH
Method: as §1

FLT3 wt = molecular target: T5, FLT3 wt (Homo sapiens, UniProt P36888)
T5 construct: made in house; host or cells: Sf9 insect cells (baculovirus)
T5 sequence (P36888 27-993): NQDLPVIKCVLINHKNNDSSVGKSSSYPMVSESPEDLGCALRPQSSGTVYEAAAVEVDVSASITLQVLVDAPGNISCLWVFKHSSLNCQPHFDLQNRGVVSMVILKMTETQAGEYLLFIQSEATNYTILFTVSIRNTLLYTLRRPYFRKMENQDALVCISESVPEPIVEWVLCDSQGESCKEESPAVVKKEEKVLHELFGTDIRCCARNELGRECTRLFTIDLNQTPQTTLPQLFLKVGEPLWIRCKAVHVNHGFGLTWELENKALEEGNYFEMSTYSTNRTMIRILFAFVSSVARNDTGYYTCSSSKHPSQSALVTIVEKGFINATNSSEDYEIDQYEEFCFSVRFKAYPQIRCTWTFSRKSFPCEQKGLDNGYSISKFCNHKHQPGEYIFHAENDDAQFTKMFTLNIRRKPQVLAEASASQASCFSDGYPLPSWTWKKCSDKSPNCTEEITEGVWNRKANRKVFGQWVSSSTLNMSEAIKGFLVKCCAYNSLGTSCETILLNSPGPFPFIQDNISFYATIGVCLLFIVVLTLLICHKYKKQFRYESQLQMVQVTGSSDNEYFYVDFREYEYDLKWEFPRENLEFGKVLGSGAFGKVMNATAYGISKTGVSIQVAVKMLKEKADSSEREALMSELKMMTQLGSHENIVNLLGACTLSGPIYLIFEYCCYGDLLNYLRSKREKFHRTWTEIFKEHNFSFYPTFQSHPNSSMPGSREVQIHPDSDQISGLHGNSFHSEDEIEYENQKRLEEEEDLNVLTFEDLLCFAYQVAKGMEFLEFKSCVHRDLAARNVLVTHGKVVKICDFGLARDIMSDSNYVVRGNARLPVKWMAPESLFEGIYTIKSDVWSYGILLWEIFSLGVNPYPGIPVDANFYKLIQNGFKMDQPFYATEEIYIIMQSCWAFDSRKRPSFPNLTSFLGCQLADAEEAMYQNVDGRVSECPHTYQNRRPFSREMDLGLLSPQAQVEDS
Method: as §1

FLT3 D835Y = molecular target: T6, FLT3 D835Y (Homo sapiens, UniProt P36888, D835Y)
T6 construct: made in house; host or cells: Sf9 insect cells (baculovirus)
T6 sequence (P36888 27-993 D835Y): T5 sequence (P36888 27-993) with D809Y
Method: as §1

RSK1 = molecular target: T7, RSK1 (Homo sapiens, UniProt Q15418)
T7 construct: made in house; host or cells: Sf9 insect cells (baculovirus)
Method: as §1

PLK4 = molecular target: T8, PLK4 (Homo sapiens, UniProt O00444)
T8 construct: made in house; host or cells: Sf9 insect cells (baculovirus)
T8 sequence (O00444 1-970): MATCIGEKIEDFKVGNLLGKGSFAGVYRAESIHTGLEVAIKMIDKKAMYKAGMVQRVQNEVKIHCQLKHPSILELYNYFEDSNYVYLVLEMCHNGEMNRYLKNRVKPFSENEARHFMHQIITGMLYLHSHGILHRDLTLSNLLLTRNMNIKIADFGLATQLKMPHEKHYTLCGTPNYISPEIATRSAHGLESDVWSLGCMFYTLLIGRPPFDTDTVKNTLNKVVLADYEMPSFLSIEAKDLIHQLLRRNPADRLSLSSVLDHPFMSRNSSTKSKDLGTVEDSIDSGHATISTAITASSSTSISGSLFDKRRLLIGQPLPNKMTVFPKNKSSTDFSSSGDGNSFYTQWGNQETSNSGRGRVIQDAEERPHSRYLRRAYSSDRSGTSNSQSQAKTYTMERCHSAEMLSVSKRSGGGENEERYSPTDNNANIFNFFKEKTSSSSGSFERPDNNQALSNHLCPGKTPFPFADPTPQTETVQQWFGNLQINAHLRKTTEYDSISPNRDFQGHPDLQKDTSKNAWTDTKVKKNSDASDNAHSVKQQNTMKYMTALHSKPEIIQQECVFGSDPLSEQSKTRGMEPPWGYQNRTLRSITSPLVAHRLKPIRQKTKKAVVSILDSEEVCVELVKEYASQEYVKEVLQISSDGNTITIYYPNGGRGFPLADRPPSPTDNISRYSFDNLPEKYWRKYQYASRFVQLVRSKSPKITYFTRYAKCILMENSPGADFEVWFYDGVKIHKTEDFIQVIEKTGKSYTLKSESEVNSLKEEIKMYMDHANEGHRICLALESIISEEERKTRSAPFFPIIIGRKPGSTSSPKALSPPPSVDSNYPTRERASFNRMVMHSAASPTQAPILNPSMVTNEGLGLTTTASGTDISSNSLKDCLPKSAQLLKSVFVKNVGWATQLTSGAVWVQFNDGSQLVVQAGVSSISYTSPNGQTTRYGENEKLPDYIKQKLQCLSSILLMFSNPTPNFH
Method: as §1

RSK4 = molecular target: T9, RSK4 (Homo sapiens, UniProt Q9UK32)
T9 construct: made in house; host or cells: Sf9 insect cells (baculovirus)
Method: as §1

Aurora B = molecular target: T10, Aurora B (Homo sapiens, UniProt Q96GD4)
T10 construct: made in house; host or cells: Sf9 insect cells (baculovirus)
T10 sequence (Q96GD4 whole entry): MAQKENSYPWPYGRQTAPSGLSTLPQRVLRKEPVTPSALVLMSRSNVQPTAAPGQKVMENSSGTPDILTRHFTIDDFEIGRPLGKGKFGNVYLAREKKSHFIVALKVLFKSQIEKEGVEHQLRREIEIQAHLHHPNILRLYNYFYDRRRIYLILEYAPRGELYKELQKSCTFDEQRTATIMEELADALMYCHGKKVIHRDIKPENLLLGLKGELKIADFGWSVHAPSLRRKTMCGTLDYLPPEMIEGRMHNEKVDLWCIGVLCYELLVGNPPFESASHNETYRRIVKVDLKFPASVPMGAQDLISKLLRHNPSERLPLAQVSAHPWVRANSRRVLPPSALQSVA
Method: as §1

RSK3 = molecular target: T11, RSK3 (Homo sapiens, UniProt Q15349)
T11 construct: made in house; host or cells: Sf9 insect cells (baculovirus)
T11 sequence (Q15349 whole entry): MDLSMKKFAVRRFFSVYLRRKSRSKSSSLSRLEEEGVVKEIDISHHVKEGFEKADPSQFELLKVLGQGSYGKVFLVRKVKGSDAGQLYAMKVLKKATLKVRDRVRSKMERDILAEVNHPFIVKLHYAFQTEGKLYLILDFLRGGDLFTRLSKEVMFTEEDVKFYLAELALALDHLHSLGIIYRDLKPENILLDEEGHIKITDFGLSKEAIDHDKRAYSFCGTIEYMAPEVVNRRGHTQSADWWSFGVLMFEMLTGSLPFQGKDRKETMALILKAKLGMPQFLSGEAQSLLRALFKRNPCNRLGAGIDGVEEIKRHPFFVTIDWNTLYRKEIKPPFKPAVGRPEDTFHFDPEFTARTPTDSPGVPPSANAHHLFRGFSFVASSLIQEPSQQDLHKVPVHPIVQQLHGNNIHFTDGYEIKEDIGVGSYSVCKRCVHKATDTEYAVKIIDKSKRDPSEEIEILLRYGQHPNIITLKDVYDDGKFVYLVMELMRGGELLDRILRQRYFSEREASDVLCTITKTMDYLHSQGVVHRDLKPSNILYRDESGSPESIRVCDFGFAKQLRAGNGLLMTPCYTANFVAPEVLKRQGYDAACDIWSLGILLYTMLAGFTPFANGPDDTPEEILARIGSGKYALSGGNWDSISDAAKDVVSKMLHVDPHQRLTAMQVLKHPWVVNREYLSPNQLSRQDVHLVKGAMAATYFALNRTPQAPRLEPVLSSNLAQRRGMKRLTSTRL
Method: as §1

RSK2 = molecular target: T12, RSK2 (Homo sapiens, UniProt P51812)
T12 construct: made in house; host or cells: Sf9 insect cells (baculovirus)
Method: as §1

MAP4K4 = molecular target: T13, MAP4K4 (Homo sapiens, UniProt O95819)
T13 construct: made in house; host or cells: Sf9 insect cells (baculovirus)
Method: as §1

PRKG2 = molecular target: T14, PRKG2 (Homo sapiens, UniProt Q13237)
T14 construct: made in house; host or cells: Sf9 insect cells (baculovirus)
T14 sequence (Q13237 1-762): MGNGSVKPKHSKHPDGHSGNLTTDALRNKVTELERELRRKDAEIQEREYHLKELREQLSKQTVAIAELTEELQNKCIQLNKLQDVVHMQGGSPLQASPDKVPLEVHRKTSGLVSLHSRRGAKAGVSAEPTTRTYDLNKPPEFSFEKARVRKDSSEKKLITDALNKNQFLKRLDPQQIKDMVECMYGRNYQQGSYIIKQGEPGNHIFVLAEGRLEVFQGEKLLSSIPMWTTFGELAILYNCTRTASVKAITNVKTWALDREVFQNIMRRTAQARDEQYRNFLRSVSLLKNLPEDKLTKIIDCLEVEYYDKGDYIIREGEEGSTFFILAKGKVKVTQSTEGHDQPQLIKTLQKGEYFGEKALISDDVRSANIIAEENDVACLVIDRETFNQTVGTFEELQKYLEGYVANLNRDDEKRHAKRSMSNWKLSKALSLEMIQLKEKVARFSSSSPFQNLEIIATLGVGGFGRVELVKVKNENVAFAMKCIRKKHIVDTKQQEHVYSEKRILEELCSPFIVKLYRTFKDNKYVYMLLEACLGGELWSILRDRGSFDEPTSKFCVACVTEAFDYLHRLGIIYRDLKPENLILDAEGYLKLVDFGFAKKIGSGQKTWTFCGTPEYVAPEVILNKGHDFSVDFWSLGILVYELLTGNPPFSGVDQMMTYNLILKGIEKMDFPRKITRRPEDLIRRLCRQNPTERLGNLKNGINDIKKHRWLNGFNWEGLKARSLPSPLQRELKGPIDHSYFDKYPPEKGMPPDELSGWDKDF
Method: as §1

SMILES: Cn1c2ccccc2c2c3c(c4c5ccccc5[nH]c4c21)C(=O)NC3=O [PQ-042, 6,7,12,13-Tetrahydro-12-methyl-5,7 dioxo-5H-indolo [2,3-a] pyrrolo [3,4-c]-carbazole]
- IC50 (PDGFR-alpha): > 10000 nM
- IC50 (CHK2): > 10000 nM
- IC50 (PDGFR-beta): > 10000 nM
- IC50 (FAK): > 10000 nM
- IC50 (FLT3 wt): 380 nM
- IC50 (FLT3 D835Y): 68 nM

SMILES: CN(C)CC(O)Cn1c2ccc(O)cc2c2c3c(c4c5cc(O)ccc5n(C)c4c21)C(=O)NC3=O (racemic)
- IC50 (PDGFR-alpha): 2000 nM
- IC50 (CHK2): 22000 nM
- IC50 (PDGFR-beta): 700 nM
- IC50 (FAK): 1000 nM
- IC50 (FLT3 wt): 110 nM
- IC50 (FLT3 D835Y): 64 nM

SMILES: CN(C)CCCn1c2ccc(O)cc2c2c3c(c4c5cc(O)ccc5n(C)c4c21)C(=O)NC3=O [PQ-012, 12-(3-Dimethylaminopropyl)-6,7,12,13-tetrahydro-3,9-dihydroxy-12-methyl-5,7 dioxo-5H-indolo[2,3-a] pyrrolo [3,4-c]-carbazole]
- IC50 (PDGFR-alpha): < 3 nM
- IC50 (CHK2): 23 nM
- IC50 (PDGFR-beta): < 3 nM
- IC50 (FAK): 14 nM
- IC50 (FLT3 wt): < 3 nM
- IC50 (FLT3 D835Y): < 3 nM

SMILES: NC(=O)CCn1c2ccccc2c2c3c(c4c5ccccc5[nH]c4c21)C(=O)NC3=O [PQ-041, 12-(2-Carbamidoethyl)-6,7,12,13-tetrahydro-5,1 dioxo-5H-indolo[2,3-a] pyrrolo [3,4-c]-carbazole]
- IC50 (PDGFR-alpha): 130 nM
- IC50 (CHK2): 740 nM
- IC50 (PDGFR-beta): 150 nM
- IC50 (FAK): 2400 nM
- IC50 (FLT3 wt): 5.6 nM
- IC50 (FLT3 D835Y): 3.9 nM

SMILES: COc1ccc2[nH]c3c(c4c(c5c6cc(OC)ccc6n(C)c35)C(=O)NC4=O)c2c1 [PQ-013, 6,7,12,13-Tetrahydro-3,9-dimethoxy-12-methyl-5,7 dioxo-5H-indolo [2,3-a] pyrrolo [3,4-c]-carbazole]
- IC50 (RSK1): 23 nM
- IC50 (PLK4): 180 nM
- IC50 (PDGFR-alpha): 10 nM
- IC50 (CHK2): 40 nM
- IC50 (PDGFR-beta): 19 nM
- IC50 (RSK4): 78 nM
- IC50 (FAK): 36000 nM
- IC50 (FLT3 wt): 4.6 nM
- IC50 (FLT3 D835Y): < 3 nM
- IC50 (Aurora B): 210 nM
- IC50 (RSK3): 170 nM
- IC50 (RSK2): 430 nM
- IC50 (MAP4K4): 35 nM
- IC50 (PRKG2): 67 nM

SMILES: COc1ccc2c(c1)c1c3c(c4c5ccccc5n(C)c4c1n2CCC#N)C(=O)NC3=O [PQ-014, 13-(2-Cyanoethyl)-6,7,12,13-tetrahydro-3-methoxy-12-methyl-5,7 dioxo-5H-indolo[2,3-a] pyrrolo [3,4-c]-carbazole]
- IC50 (PDGFR-alpha): 110 nM
- IC50 (CHK2): 2100 nM
- IC50 (PDGFR-beta): 130 nM
- IC50 (FAK): 1200 nM
- IC50 (FLT3 wt): 4.6 nM
- IC50 (FLT3 D835Y): 3.5 nM
